Literature values in PMC9311059, “P‐Glycoprotein and Breast Cancer Resistance Protein Transporter Inhibition by Cyclosporine and Quinidine on the Pharmacokinetics of Oral Rimegepant in Healthy Subjects” (Clinical Pharmacology in Drug Development, 2022).

Conditions: oral midazolam coadministered with cyclosporine; cited from earlier work

Cc1ncc2n1-c1ccc(Cl)cc1C(c1ccccc1F)=NC2 [midazolam]
change in midazolam Cmax: no meaningful change | increase in midazolam AUC: 46%
